Data reported in patent US9580432B2, “Fused pyrimidine compound or salt thereof” (TAIHO PHARMACEUTICAL CO., LTD., priority 2013, dated 2017).
pIC50: −log10 of the molar value.

Legend:
[1] = molecular target: purified recombinant human BTK protein (Homo sapiens (Human), UniProt Q06187); assay: Measurement of BTK inhibitory activity (in vitro); assay type: biochemical; conditions: FL-PEPTIDE 2 substrate 1 μM, ATP 45 μM, 40 minutes at 25° C.
From the text: With regard to the setting of the conditions for a method for measuring the inhibitory activity of a compound against BTK kinase activity in vitro, it is described in the consumable reagent supplies price list for LabChip (registered trademark) series of PerkinElmer, Inc. that FL-PEPTIDE 2 corresponds to a substrate peptide for the measurement of BTK kinase activity. Therefore, FL-PEPTIDE 2 was used as a substrate. The purified recombinant human BTK protein used in the test was purchased from Carna Biosciences, Inc.
With regard to the measurement of the inhibitory activity of the compounds, firstly, the compounds of the present invention were diluted stepwise with dimethyl sulfoxide (DMSO). Subsequently, BTK protein, a substrate peptide (final concentration was 1 μM), magnesium chloride (final concentration was 10 mM), ATP (final concentration was 45 μM), and a DMSO solution of the compounds of the present invention (final concentration of DMSO was 5%) were added to a buffer solution for kinase reaction (20 mM HEPES (pH 7.5), 2 mM dithiotheitol, 0.01% Triton X-100), and after the solution was incubated for 40 minutes at 25° C., a kinase reaction was carried out. The reaction was terminated by adding EDTA thereto in order to obtain a final concentration of 30 mM. Finally, a substrate peptide that was not phosphorylated (S) and a phosphorylated peptide (P) were separated and detected by microchannel capillary electrophoresis using a LabChip EZ Reader II (PerkinElmer, Inc.).

A431 cells / TMD8 cells = assay: Proliferation inhibitory activity against cell lines expressing BTK and EGFR (in vitro), comparison of selectivity; assay type: cell-based, human; conditions: ratio from GI50 (nM), 3 days culture, CELLTITER GLO
From the text: TMD8 cells, which are of a diffuse large B-cell lymphoma cell line expressing BTK, were suspended in RPMI1640 medium (manufactured by Life Technologies Corp.) containing 10% fetal bovine serum. A431 cells, which are of an EGFR-overexpressing, highly activated human epidermoid carcinoma cell line, were suspended in DMEM, high glucose medium (manufactured by Life Technologies Corp.) containing 10% fetal bovine serum. The cell suspensions were inoculated into each well of 384-well flat-bottomed microplates, and the cells were cultured for 1 day at 37° C. in an incubator containing 5% carbon dioxide gas. […] A DMSO solution of the test compounds was diluted with the medium used in the suspension of the each cells, and this was added to each of the wells of the cell culture plates such that the final concentration of DMSO would be 0.2%. The cells were further cultured for 3 days at 37° C. in an incubator containing 5% carbon dioxide gas. […] Proliferation inhibition ratio (%)=(C−T)/(C−C0)×100
T: Luminescence intensity of a well in which the test compound was added
C: Luminescence intensity of a well in which the test compound was not added
C0: Luminescence intensity of a well measured before the addition of the test compound
When a comparison is made between the cell proliferation inhibitory activity against A431 cells that depends on the EGFR proliferation signaling and the cell proliferation inhibitory activity against TMD8 cells that depends on the BTK proliferation signaling, the influence of the respective kinases at a cellular level is able to be evaluated. That is, when the “A431 cell proliferation inhibition ratio/TMD8 cell proliferation inhibition ratio” is calculated, it is contemplated that as the value of the ratio is larger, the selectivity to BTK over EGFR in the cells is higher.

[2] = tested on: purified recombinant human EGFR protein / BTK; assay: BTK inhibition selectivity compared with EGFR kinase inhibitory activity (in vitro); assay type: biochemical; conditions: EGFR assay ATP 1.5 μM
Description: 1) Measurement of BTK Inhibitory Activity
2) Measurement of EGFR Inhibitory Activity
Therefore, a biotinated peptide (biotin-[…]) was produced by referring to the amino acid sequence of the peptide. The purified recombinant human EGFR protein used in the test was purchased from Carna Biosciences, Inc.
With regard to the measurement of the inhibitory activity of the compounds, firstly, the compounds of the present invention were diluted stepwise with dimethyl sulfoxide (DMSO). […] The reaction was terminated by adding EDTA thereto in order to obtain a final concentration of 24 mM. Subsequently, a detection liquid containing Eu-labeled anti-phosphorylated tyrosine antibody PT66 (PerkinElmer, Inc.) and […] APC-SA (PerkinElmer, Inc.) was added thereto, and the system was left to stand for 2 hours or longer at room temperature.
3) BTK Inhibition Selectivity

purified recombinant human BTK protein, sequence (Q06187 whole entry): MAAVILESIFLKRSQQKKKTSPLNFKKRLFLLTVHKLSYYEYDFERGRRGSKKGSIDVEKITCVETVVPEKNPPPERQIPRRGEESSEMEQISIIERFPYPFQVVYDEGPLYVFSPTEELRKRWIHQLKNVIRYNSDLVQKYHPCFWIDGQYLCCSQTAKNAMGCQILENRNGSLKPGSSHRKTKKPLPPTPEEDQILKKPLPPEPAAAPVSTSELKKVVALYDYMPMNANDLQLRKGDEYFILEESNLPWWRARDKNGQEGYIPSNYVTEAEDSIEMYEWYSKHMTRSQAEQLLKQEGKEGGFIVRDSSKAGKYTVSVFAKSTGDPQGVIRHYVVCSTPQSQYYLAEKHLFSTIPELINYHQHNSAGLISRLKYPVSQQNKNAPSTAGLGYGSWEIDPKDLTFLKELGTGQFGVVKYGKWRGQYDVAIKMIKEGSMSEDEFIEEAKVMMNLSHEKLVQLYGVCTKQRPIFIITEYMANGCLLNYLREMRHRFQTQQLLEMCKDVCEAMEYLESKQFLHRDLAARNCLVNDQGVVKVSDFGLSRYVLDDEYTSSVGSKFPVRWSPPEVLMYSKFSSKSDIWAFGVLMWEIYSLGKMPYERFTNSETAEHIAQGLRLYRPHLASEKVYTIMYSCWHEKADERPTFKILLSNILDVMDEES

pIC50 [1] | EGFR inhibitory activity IC50 value (nM)/BTK inhibitory activity IC50 value (nM) [2] | SMILES | A431 cell proliferation inhibition ratio/TMD8 cell proliferation inhibitio ratio (A431 cells / TMD8 cells)
9.33 | – | C=CC(=O)N1CCC[C@@H](n2nc(C(=O)Nc3nc4cc(Br)ccc4o3)c3c(N)ncnc32)C1 [Example 2, (R)-1-(1-acryloylpiperidin-3-yl)-4-amino-N-(5-bromobenzo[d]oxazol-2-yl)-1H-pyrazolo[3,4-d]pyrimidine-3-carboxamide] | >1033.6
9.05 | 929.2 | C=C(C)C(=O)N1CCC[C@@H](n2nc(C(=O)Nc3nc4cc(Cl)ccc4o3)c3c(N)ncnc32)C1 [Example 4, (R)-4-amino-N-(5-chlorobenzo[d]oxazol-2-yl)-1-(1-methacryloylpiperidin-3-yl)-1H-pyrazolo[3,4-d]pyrimidine-3-carboxamide] | –
8.90 | 241.0 | C/C=C/C(=O)N1CCC[C@@H](n2nc(C(=O)Nc3nc4cc(Cl)ccc4o3)c3c(N)ncnc32)C1 [Example 5, (R,E)-4-amino-N-(5-chlorobenzo[d]oxazol-2-yl)-1-(1-(but-2-enoyl)piperidin-3-yl)-1H-pyrazolo[3,4-d]pyrimidine-3-carboxamide] | –
8.80 | – | C=CC(=O)N1CCC[C@@H](n2nc(C(=O)Nc3nc4cc(C)c(C)cc4o3)c3c(N)ncnc32)C1 [Example 23, (R)-1-(1-acryloylpiperidin-3-yl)-4-amino-N-(5,6-dimethylbenzo[d]oxazol-2-yl)-1H-pyrazolo[3,4-d]pyrimidine-3-carboxamide] | >10680
9.23 | – | C=CC(=O)N1CC[C@@H](n2nc(C(=O)Nc3nc4cc(Cl)ccc4o3)c3c(N)ncnc32)C1 [Example 24, (R)-1-(1-acryloylpyrrolidin-3-yl)-4-amino-N-(5-chlorobenzo[d]oxazol-2-yl)-1H-pyrazolo[3,4-d]pyrimidine-3-carboxamide] | 3266.5
8.55 | 642.8 | CC(C)=CC(=O)N1CC[C@@H](n2nc(C(=O)Nc3nc4cc(Cl)ccc4o3)c3c(N)ncnc32)C1 [Example 26, (R,E)-4-amino-N-(5-chlorobenzo[d]oxazol-2-yl)-1-(1-(3-methylbut-2-enoyl)pyrrolidin-3-yl)-1H-pyrazolo[3,4-d]pyrimidine-3-carboxamide] | –
9.06 | 59.8 | Nc1ncnc2c1c(C(=O)Nc1nc3cc(Cl)ccc3o1)nn2[C@@H]1CCN(C(=O)/C=C/CN2CCCC2)C1 [Example 36, (R,E)-4-amino-N-(5-chlorobenzo[d]oxazol-2-yl)-1-(1-(4-(pyrrolidin-1-yl)but-2-enoyl)pyrrolidin-3-yl)-1H-pyrazolo[3,4-d]pyrimidine-3-carboxamide] | –
9.10 | 70.5 | Nc1ncnc2c1c(C(=O)Nc1nc3cc(Cl)ccc3o1)nn2[C@@H]1CCN(C(=O)/C=C/CN2CCCCC2)C1 [Example 37, (R,E)-4-amino-N-(5-chlorobenzo[d]oxazol-2-yl)-1-(1-(4-(piperidin-1-yl)but-2-enoyl)pyrrolidin-3-yl)-1H-pyrazolo[3,4-d]pyrimidine-3-carboxamide] | –
– | 20.6 | C=CC(=O)N1CC(n2nc(C(=O)Nc3nc4cc(F)ccc4o3)c3c(N)ncnc32)C1 [Example 79, 1-(1-acryloylazetidin-3-yl)-4-amino-N-(5-fluorobenzo[d]oxazol-2-yl)-1H-pyrazolo[3,4-d]pyrimidine-3-carboxamide] | –
– | 11.0 | C=CC(=O)NCCCn1nc(C(=O)Nc2nc3ccccc3o2)c2c(N)ncnc21 [Example 85, 1-(3-acrylamidopropyl)-4-amino-N-(benzo[d]oxazol-2-yl)-1H-pyrazolo[3,4-d]pyrimidine-3-carboxamide] | –

The remaining lines, values behind:

SMILES | pIC50 [1] | EGFR inhibitory activity IC50 value (nM)/BTK inhibitory activity IC50 value (nM) [2] | A431 cell proliferation inhibition ratio/TMD8 cell proliferation inhibitio ratio (A431 cells / TMD8 cells)
C=CC(=O)N1CCC[C@@H](n2nc(C(=O)Nc3nc4c(C)cccc4o3)c3c(N)ncnc32)C1 [Example 10, (R)-1-(1-acryloylpiperidin-3-yl)-4-amino-N-(4-methylbenzo[d]oxazol-2-yl)-1H-pyrazolo[3,4-d]pyrimidine-3-carboxamide] | 8.62 | – | 5860.5
C=CC(=O)N1CC[C@@H](n2nc(C(=O)Nc3nc4cc(-c5cccs5)ccc4o3)c3c(N)ncnc32)C1 [Example 28, (R)-1-(1-acryloylpyrrolidin-3-yl)-4-amino-N-(5-(thiophen-2-yl)benzo[d]oxazol-2-yl)-1H-pyrazolo[3,4-d]pyrimidine-3-carboxamide] | 9.25 | – | 2040.3
C=CC(=O)N1CC[C@@H](n2nc(C(=O)Nc3nc4cc(C)ccc4o3)c3c(N)ncnc32)C1 [Example 29, (R)-1-(1-acryloylpyrrolidin-3-yl)-4-amino-N-(5-methylbenzo[d]oxazol-2-yl)-1H-pyrazolo[3,4-d]pyrimidine-3-carboxamide] | 9.31 | – | 1243.4
C=CC(=O)N1CC(n2cc(C(=O)Nc3nc4cc(Cl)ccc4o3)c3c(N)ncnc32)C1 [Example 46, 7-(1-acryloylazetidin-3-yl)-4-amino-N-(5-chlorobenzo[d]oxazol-2-yl)-7H-pyrrolo[2,3-d]pyrimidine-5-carboxamide] | 8.49 | – | 7662.2
C=CC(=O)N1CC[C@@H](n2cc(C(=O)Nc3nc4cc(Cl)ccc4o3)c3c(N)ncnc32)C1 [Example 48, (R)-7-(1-acryloylpyrrolidin-3-yl)-4-amino-N-(5-chlorobenzo[d]oxazol-2-yl)-7H-pyrrolo[2,3-d]pyrimidine-5-carboxamide] | 9.08 | – | 2496.4
CN(C)C/C=C/C(=O)N1CC[C@@H](n2cc(C(=O)Nc3nc4cc(-c5ccccc5)ccc4o3)c3c(N)ncnc32)C1 [Example 56, (R,E)-4-amino-N-(5-phenylbenzo[d]oxazol-2-yl)-7-(1-(4-(dimethylamino)but-2-enoyl)pyrrolidin-3-yl) 7H-pyrrolo[2,3-d]pyrimidine-5-carboxamide] | 8.87 | 17.6 | –
CCN(C)C/C=C/C(=O)N1CC[C@@H](n2cc(C(=O)Nc3nc4cc(-c5ccccc5)ccc4o3)c3c(N)ncnc32)C1 [Example 57, (R,E)-4-amino-N-(5-phenylbenzo[d]oxazol-2-yl)-7-(1-(4-(ethyl(methyl)amino)but-2-enoyl)pyrrolidin-3-yl) 7H-pyrrolo[2,3-d]pyrimidine-5-carboxamide] | 8.82 | 19.3 | –
CC(C)N(C)C/C=C/C(=O)N1CC[C@@H](n2cc(C(=O)Nc3nc4cc(-c5ccccc5)ccc4o3)c3c(N)ncnc32)C1 [Example 59, (R,E)-4-amino-N-(5-phenylbenzo[d]oxazol-2-yl)-7-(1-(4-(isopropyl(methyl)amino)but-2-enoyl)pyrrolidin-3-yl) 7H-pyrrolo[2,3-d]pyrimidine-5-carboxamide] | 8.82 | 16.3 | –
C=CC(=O)N1CCC(Cn2nc(C(=O)Nc3nc4ccccc4o3)c3c(N)ncnc32)C1 (stereo not drawn) [Example 66, 1-((1-acryloylpyrrolidin-3-yl)methyl)-4-amino-N-(benzo[d]oxazol-2-yl)-1H-pyrazolo[3,4-d]pyrimidine-3-carboxamide] | 7.77 | – | >1205.7
